Measured values from article PMC7069944, “Amino acid levels determine metabolism and CYP450 function of hepatocytes and hepatoma cell lines” (Nature Communications, 2020).
Several values for one entry are separate records, joined by “and”; a condition that tells them apart may be missing. Identical values can stand only once.

Assays:
HepG2 = experiment: Repeated-exposure DILI training compounds, resazurin conversion, HepG2; conditions: replicates, listed as Ximelatagran
Outline: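 Viability by resazurin conversion, correlated with Cmax, was assessed after drug exposure in 384-well cultures of differentiated PSCs and of HepG2 (40,000 cells/well). Dosing began 8 h post-attachment, with untreated wells as negative control.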

HLC = experiment: Repeated-exposure DILI training compounds, resazurin conversion, HLC; conditions: replicates, listed as Ximelatagran
Outline: (§1)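 PSC-derived hepatocyte-like cells were differentiated in 384-well plates, and drugs were added after 8 h of attachment. Viability was measured by resazurin conversion and related to therapeutic Cmax values, with untreated wells as negative control.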

HC6X = experiment: Repeated-exposure DILI training compounds, resazurin conversion, HC6X; conditions: replicates, listed as Ximelatagran
Outline: as §1

HC3X = experiment: Repeated-exposure DILI training compounds, resazurin conversion, HC3X; conditions: for resazurin conversion (Supplementary Figure 7D): HC3X AAGLY D40, replicates, listed as Ximelatagran
Outline: as §1

Compound: CCOC(=O)CN[C@@H](C(=O)N1CC[C@H]1C(=O)NCc1ccc(/C(N)=N\O)cc1)C1CCCCC1 [ximelagatran]
- resazurin conversion (Supplementary Figure 7D) (HepG2; HepG2 AAGLY D30, 10 uM): 94.6 and 101.9 and 93.6
- resazurin conversion (Supplementary Figure 7D) (HepG2; HepG2 AAGLY D30, 30 uM): 92.6 and 98.4 and 83.3 and 96.4 and 96.6 and 94.8
- resazurin conversion (Supplementary Figure 7D) (HepG2; HepG2 AAGLY D30, 50 uM): 93.8 and 101.4 and 83.8 and 100.6 and 100.8 and 103
- resazurin conversion (Supplementary Figure 7D) (HepG2; HepG2 AAGLY D30, 100 uM): 87.1 and 96.4 and 79.9 and 96 (2×) and 99.8
- resazurin conversion (Supplementary Figure 7D) (HepG2; HepG2 AAGLY D30, 300 uM): 79.2 and 92.1 and 83.1 and 91.5 (2×) and 86.4
- resazurin conversion (Supplementary Figure 7D) (HepG2; HepG2 AAGLY D30, 500 uM): 73.8 and 82.7 and 72.5 and 77.3 and 81.8 and 90.8
- resazurin conversion (Supplementary Figure 7D) (HepG2; HepG2 AAGLY D30, 1000 uM): 33.4 and 32.8 and 32.2 and 33.5 and 33 and 34
- resazurin conversion (Supplementary Figure 7D) (HepG2; HepG2 AAGLY D30, 2000 uM): 32.1 and 33.4 and 32.3 and 33 and 31.5 and 35.4
- resazurin conversion (Supplementary Figure 7D) (HepG2; HepG2 AAGLY D30, 4000 uM): 32.2 and 33.1 and 31.8 and 32.9 (2×) and 31.4
- resazurin conversion (Supplementary Figure 7D) (HepG2; HepG2 CTL D7, 10 uM): 100
- resazurin conversion (Supplementary Figure 7D) (HepG2; HepG2 CTL D7, 30 uM): 113.6 and 106.8 and 92.5 and 99.4 and 103.9 and 98.2
- resazurin conversion (Supplementary Figure 7D) (HepG2; HepG2 CTL D7, 50 uM): 100.3 and 102 and 94.9 and 85.4 and 97.6 and 93
- resazurin conversion (Supplementary Figure 7D) (HepG2; HepG2 CTL D7, 100 uM): 99.5 and 95.1 and 87 and 84.8 and 92.1 and 91.7
- resazurin conversion (Supplementary Figure 7D) (HepG2; HepG2 CTL D7, 300 uM): 98.7 and 94.5 and 90.1 and 84 and 87.6 and 84.8
- resazurin conversion (Supplementary Figure 7D) (HepG2; HepG2 CTL D7, 500 uM): 86.4 and 89.2 and 85.2 and 81.4 and 85.9 and 81.5
- resazurin conversion (Supplementary Figure 7D) (HepG2; HepG2 CTL D7, 1000 uM): 71.2 and 56.7 and 60.3 and 67.6 and 70.2 and 66
- resazurin conversion (Supplementary Figure 7D) (HepG2; HepG2 CTL D7, 2000 uM): 35.7 and 15 and 22 and 29.6 and 28.3 and 27.1
- resazurin conversion (Supplementary Figure 7D) (HepG2; HepG2 CTL D7, 4000 uM): 7.9 (2×) and 7.7 (3×) and 8
- resazurin conversion (Supplementary Figure 7D) (HLC; HLC AAGLY D40, 30 uM): 87.9 and 61.4 and 89.7 and 86.8 and 95.5 and 101.7
- resazurin conversion (Supplementary Figure 7D) (HLC; HLC AAGLY D40, 50 uM): 102.7 and 110.5 and 84 and 85.7 and 101.4 and 47.2
- resazurin conversion (Supplementary Figure 7D) (HLC; HLC AAGLY D40, 100 uM): 101.8 and 83.1 and 91.6 and 97.8 and 108.1 and 71.2
- resazurin conversion (Supplementary Figure 7D) (HLC; HLC AAGLY D40, 300 uM): 102 and 100.4 and 103.4 and 99.6 and 91.1 and 43.4
- resazurin conversion (Supplementary Figure 7D) (HLC; HLC AAGLY D40, 500 uM): 103.1 and 102.1 and 106.2 and 106.4 and 103.3 and 93.1
- resazurin conversion (Supplementary Figure 7D) (HLC; HLC AAGLY D40, 1000 uM): 124.2 and 94.4 and 100.6 and 122 and 108.3 and 107.9
- resazurin conversion (Supplementary Figure 7D) (HLC; HLC AAGLY D40, 2000 uM): 74 and 131.7 and 126.4 and 135.7 and 116.8 and 129.6
- resazurin conversion (Supplementary Figure 7D) (HLC; HLC AAGLY D40, 4000 uM): 129.4 and 115 and 25.5 and 112.7 and 127.1 and 50.9
- resazurin conversion (Supplementary Figure 7D) (HLC; HLC LDM D40, 10 uM): 103 and 119.6 and 106.5 and 118.8
- resazurin conversion (Supplementary Figure 7D) (HLC; HLC LDM D40, 30 uM): 98.9 and 98.8 and 106 and 104.1 and 100.4 and 102.4
- resazurin conversion (Supplementary Figure 7D) (HLC; HLC LDM D40, 50 uM): 120.6 and 118.1 and 72.7 and 111.9 and 69.1 and 123.9
- resazurin conversion (Supplementary Figure 7D) (HLC; HLC LDM D40, 100 uM): 93.8 and 126.7 and 78.4 and 121.1 and 87.3 and 126.3
- resazurin conversion (Supplementary Figure 7D) (HLC; HLC LDM D40, 300 uM): 125.4 and 106 and 125.6 and 93.6 and 136.9 and 112.2
- resazurin conversion (Supplementary Figure 7D) (HLC; HLC LDM D40, 500 uM): 130.3 and 128.1 and 99.5 and 124.6 and 98 and 115.9
- resazurin conversion (Supplementary Figure 7D) (HLC; HLC LDM D40, 1000 uM): 132.9 and 140 and 126.4 and 146.9 and 116.4 and 158.5
- resazurin conversion (Supplementary Figure 7D) (HLC; HLC LDM D40, 2000 uM): 87.8 and 64.2 and 95.2 and 125.1 and 69.7 and 117.1
- resazurin conversion (Supplementary Figure 7D) (HLC; HLC LDM D40, 4000 uM): 52.7 and 74.5 and 71.5 and 69.4 and 112 and 163.8
- resazurin conversion (Supplementary Figure 7D) (HC6X; HC6X AAGLY D40, 10 uM): 93.8 and 58.7 and 78.1 and 118.1
- resazurin conversion (Supplementary Figure 7D) (HC6X; HC6X AAGLY D40, 30 uM): 71.1 and 54.3 and 108.4 and 77.4 and 109.2 and 98.7
- resazurin conversion (Supplementary Figure 7D) (HC6X; HC6X AAGLY D40, 50 uM): 68.8 and 53.6 and 125.9 and 98.4 and 222.1 and 82.6
- resazurin conversion (Supplementary Figure 7D) (HC6X; HC6X AAGLY D40, 100 uM): 99.7 and 88.3 and 135.4 and 113.5 and 107.4 and 93.9
- resazurin conversion (Supplementary Figure 7D) (HC6X; HC6X AAGLY D40, 300 uM): 82 and 93.2 and 129.1 and 140.3 and 141.2 and 166.5
- resazurin conversion (Supplementary Figure 7D) (HC6X; HC6X AAGLY D40, 500 uM): 65.3 and 103.3 and 98.2 and 91.7 and 122.8 and 148.3
- resazurin conversion (Supplementary Figure 7D) (HC6X; HC6X AAGLY D40, 1000 uM): 71.6 and 76.5 and 78.4 and 144 and 115.7 and 139.1
- resazurin conversion (Supplementary Figure 7D) (HC6X; HC6X AAGLY D40, 2000 uM): 61.7 and 53.9 and 78.6 and 67 and 113.9 and 90
- resazurin conversion (Supplementary Figure 7D) (HC6X; HC6X AAGLY D40, 4000 uM): 54.4 and 81.3 and 84.4 and 85.7 and 55.2 and 56.8
- resazurin conversion (Supplementary Figure 7D) (HC6X; HC6X AAGLY D40 Remove dox, 30 uM): 72.9 and 78.3 and 89.9 and 101.5 and 95.4 and 95.8
- resazurin conversion (Supplementary Figure 7D) (HC6X; HC6X AAGLY D40 Remove dox, 50 uM): 55.3 and 86.1 and 70.5 and 85.8 and 92.1 and 68.6
- resazurin conversion (Supplementary Figure 7D) (HC6X; HC6X AAGLY D40 Remove dox, 100 uM): 82.1 and 85 and 79 and 110.7 and 88.3 and 96.6
- resazurin conversion (Supplementary Figure 7D) (HC6X; HC6X AAGLY D40 Remove dox, 300 uM): 99.4 and 92.8 and 102.5 and 91.4 and 94.8 and 77.9
- resazurin conversion (Supplementary Figure 7D) (HC6X; HC6X AAGLY D40 Remove dox, 500 uM): 78.1 and 81.7 and 105.3 and 97 and 101.1 and 82.7
- resazurin conversion (Supplementary Figure 7D) (HC6X; HC6X AAGLY D40 Remove dox, 1000 uM): 77.2 and 89.1 and 81.5 and 96.6 and 108.9 and 116.8
- resazurin conversion (Supplementary Figure 7D) (HC6X; HC6X AAGLY D40 Remove dox, 2000 uM): 95.3 and 105.5 and 72.8 and 94.8 and 76.2 and 80.9
- resazurin conversion (Supplementary Figure 7D) (HC6X; HC6X AAGLY D40 Remove dox, 4000 uM): 46.6 and 40.3 and 96 and 68.1 and 83.6 and 42.4
- resazurin conversion (Supplementary Figure 7D) (HC3X; 10 uM): 103.6 and 112.1 and 116.7 and 110.7 and 88 and 80.4
- resazurin conversion (Supplementary Figure 7D) (HC3X; 30 uM): 112.5 and 93.4 and 100.9 and 65.5 and 110.1 and 86
- resazurin conversion (Supplementary Figure 7D) (HC3X; 50 uM): 112.6 and 97.1 and 99.6 and 78.9 and 96.7 and 79.4
- resazurin conversion (Supplementary Figure 7D) (HC3X; 100 uM): 99 and 94.2 and 111.5 and 113 and 97.2 and 95.7
- resazurin conversion (Supplementary Figure 7D) (HC3X; 300 uM): 105.9 and 98.6 and 86.6 and 80.1 and 95.6 and 93.9
- resazurin conversion (Supplementary Figure 7D) (HC3X; 500 uM): 93.3 and 104.7 and 99.6 and 103.7 and 88.7 and 115
- resazurin conversion (Supplementary Figure 7D) (HC3X; 1000 uM): 89.5 and 109.6 and 93 and 88.2 and 108.4 and 91.9
- resazurin conversion (Supplementary Figure 7D) (HC3X; 2000 uM): 61.4 and 104.7 and 97.3 and 97.1 and 64.3 and 60.4
- resazurin conversion (Supplementary Figure 7D) (HC3X; 4000 uM): 43.9 and 48.4 and 38 and 42.8 and 47.8 and 45
- IC50/Cmax (HC3X; human): 2438.67
